US20190105367A1, “ANTIMICROBIAL 4-OXOQUINOLIZINES” (Emergent Product Development Gaithersburg Inc., priority 2011, published 2019)
≈ marks a conversion by molar mass, not a printed value. Like-named read-outs stand apart in the source and are kept apart here.

What was measured:
[1] = system: strains of A. baumannii and one strain of Acinetobacter sp.; assay: MIC with sub-inhibitory concentrations (0.25x MIC) of polymyxin B, panel of Acinetobacter strains (Example 4); assay type: cell-based
A. baumannii ATCC 19606 [2] = assay: MIC without and with sub-inhibitory polymyxin B (Example 4); assay type: cell-based, Acinetobacter baumannii; conditions: for MIC without PB/MIC + PB: A. baumannii ATCC 19606; for MIC: Acinetobacter baumannii
A. baumannii ATCC 19606 [3] = assay: Preliminary MBC without and with sub-inhibitory polymyxin B (Example 4); assay type: cell-based, Acinetobacter baumannii; conditions: Acinetobacter baumannii
A. baumannii J2 [4] = assay: MIC without and with sub-inhibitory polymyxin B (Example 4); assay type: cell-based, Acinetobacter baumannii; conditions: for MIC without PB/MIC + PB: A. baumannii J2; for MIC: Acinetobacter baumannii
A. baumannii J2 [5] = assay: Preliminary MBC without and with sub-inhibitory polymyxin B (Example 4); assay type: cell-based, Acinetobacter baumannii; conditions: Acinetobacter baumannii, preliminary MBC
[6] = system: Acinetobacter sp. (H064200250); assay: MIC without and with sub-inhibitory polymyxin B (Example 4); assay type: cell-based; conditions: for MIC: Acinetobacter
A. baumannii A329 [7] = assay: as above; assay type: cell-based, Acinetobacter baumannii; conditions: A. baumannii A329; +0.06 μg/ml PB; 2nd experiment
A. baumannii A329 [8] = assay: Preliminary MBC without and with sub-inhibitory polymyxin B (Example 4); assay type: cell-based, Acinetobacter baumannii; conditions: Acinetobacter baumannii, A329, A. baumannii A329, +0.06 μg/ml PB, 2nd experiment, read-out: MBC
A. baumannii A390 [9] = assay: MIC without and with sub-inhibitory polymyxin B (Example 4); assay type: cell-based, Acinetobacter baumannii; conditions: +0.06 μg/ml PB, 2nd experiment
A. baumannii A14 [10] = assay: Preliminary MBC without and with sub-inhibitory polymyxin B (Example 4); assay type: cell-based, Acinetobacter baumannii; conditions: 2nd experiment
Outline: (§1)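 Bactericidal endpoint scored visually on plates incubated at 37° C (18-20 hours): the lowest concentration where growth fell about 90% versus the positive control, generally leaving one colony or none.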

A. baumannii A390 [11] = assay: as above; assay type: cell-based, Acinetobacter baumannii; conditions: Acinetobacter baumannii, A390, A. baumannii A390, +0.06 μg/ml PB, 2nd experiment, read-out: MBC
Outline: as §1

A. baumannii A473 = assay: as above; assay type: cell-based, Acinetobacter baumannii; conditions: Acinetobacter baumannii, A473, A. baumannii A473, +0.06 μg/ml PB, 2nd experiment, read-out: MBC
Outline: as §1

A. baumannii NCTC 13301 [12] = assay: as above; assay type: cell-based, Acinetobacter baumannii; conditions: Acinetobacter baumannii
Outline: as §1

A. baumannii A401 [13] = assay: MIC without and with sub-inhibitory polymyxin B (Example 4); assay type: cell-based, Acinetobacter baumannii; conditions: for MIC: Acinetobacter baumannii
A. baumannii A401 [14] = assay: Preliminary MBC without and with sub-inhibitory polymyxin B (Example 4); assay type: cell-based, Acinetobacter baumannii; conditions: Acinetobacter baumannii
A. baumannii A472 [15] = assay: MIC without and with sub-inhibitory polymyxin B (Example 4); assay type: cell-based, Acinetobacter baumannii; conditions: for MIC: Acinetobacter baumannii
A. baumannii A472 [16] = assay: Preliminary MBC without and with sub-inhibitory polymyxin B (Example 4); assay type: cell-based, Acinetobacter baumannii; conditions: Acinetobacter baumannii, preliminary MBC
A. baumannii A489 [17] = assay: MIC without and with sub-inhibitory polymyxin B (Example 4); assay type: cell-based, Acinetobacter baumannii; conditions: for MIC without PB/MIC + PB: A. baumannii A489; for MIC: Acinetobacter baumannii
A. baumannii A489 [18] = assay: Preliminary MBC without and with sub-inhibitory polymyxin B (Example 4); assay type: cell-based, Acinetobacter baumannii; conditions: Acinetobacter baumannii, preliminary MBC
A. baumannii NCTC 13301 [19] = assay: MIC without and with sub-inhibitory polymyxin B (Example 4); assay type: cell-based, Acinetobacter baumannii
A. baumannii NCTC 13301 [20] = assay: as above; assay type: cell-based, Acinetobacter baumannii; conditions: +[…] PB, 2nd experiment
A. baumannii A14 [21] = assay: as above; assay type: cell-based, Acinetobacter baumannii; conditions: 1st experiment
A. baumannii A14 [22] = assay: as above; assay type: cell-based, Acinetobacter baumannii; conditions: 2nd experiment
A. baumannii A14 [23] = assay: Preliminary MBC without and with sub-inhibitory polymyxin B (Example 4); assay type: cell-based, Acinetobacter baumannii; conditions: A. baumannii A14, preliminary MBC, 1st experiment
[24] = A. baumannii A14, +0.06 μg/ml PB

SMILES: Cc1c(-c2cc(Cl)c(N)c(Cl)c2)ccn2c(=O)c(C(=O)O)cc(C3CC3)c12 [Compound 3, 8-(3,5-dichloro-4-amino-phenyl)-1-cyclopropyl-9-methyl-4-oxo-quinolizine-3-carboxylic acid]
- MIC range with PB (0.25x MIC) Oct. 1, 2008 n = 8 ([1]; 1st experiment, […] polymyxin B, ATCC 19606, A329, A390 and A473 not taken): ≤0.03 to 1 µg/mL
- MIC range with PB (0.25x MIC) Oct. 14, 2008 n = 11 ([1]; 2nd experiment, 0.06 μg/ml polymyxin B, all strains except the ATCC strain): ≤0.03 to 0.5 µg/mL
- MIC without PB/MIC + PB (A. baumannii ATCC 19606 [2]; +0.06 μg/ml PB, 2nd experiment): ≥8
- MIC without PB/MIC + PB (A. baumannii ATCC 19606 [2]; ratio, PB 0.06 μg/ml, 1st experiment): ≥8
- MIC (A. baumannii ATCC 19606 [2]; ATCC19606, A. baumannii ATCC 19606, +0.06 μg/ml PB, 2nd experiment, read-out: MIC): ≤ 0.03 µg/mL
- MIC (A. baumannii ATCC 19606 [2]; ATCC19606, read-out: MIC +0.06 μg/ml PB, A. baumannii ATCC 19606, +0.06 μg/ml polymyxin B, 1st experiment): ≤ 0.03 µg/mL
- MBC (A. baumannii ATCC 19606 [3]; ATCC19606, A. baumannii ATCC 19606, +0.06 μg/ml PB, 2nd experiment, read-out: MBC): ≤ 0.03 µg/mL
- MBC (A. baumannii ATCC 19606 [3]; ATCC19606, read-out: MBC +0.06 μg/ml PB, A. baumannii ATCC 19606, +0.06 μg/ml polymyxin B, 1st experiment): ≤ 0.03 µg/mL
- MIC without PB/MIC + PB (A. baumannii J2 [4]; +[…] PB, 2nd experiment): ≥1024
- MIC without PB/MIC + PB (A. baumannii J2 [4]; ratio, PB […], 1st experiment): 64
- MIC (A. baumannii J2 [4]; J2, A. baumannii J2, +[…] PB, 2nd experiment, read-out: MIC): ≤ 0.03 µg/mL
- MIC (A. baumannii J2 [4]; J2, read-out: MIC +[…] PB, A. baumannii J2, +[…] polymyxin B, 1st experiment): 0.125 µg/mL (≈ 0.31 µM)
- MBC (A. baumannii J2 [5]; J2, A. baumannii J2, +[…] PB, 2nd experiment, read-out: MBC): ≤ 0.03 µg/mL
- MBC (A. baumannii J2 [5]; J2, read-out: MBC +[…] PB, A. baumannii J2, +[…] polymyxin B, 1st experiment): 0.125 µg/mL (≈ 0.31 µM)
- MIC without PB/MIC + PB ([6]; Acinetobacter spp. H064200250 (OXA51), +[…] PB, 2nd experiment): 256
- MIC without PB/MIC + PB ([6]; Acinetobacter spp. H064200250, ratio, PB […], 1st experiment): 16
- MIC ([6]; Acinetobacter spp. H064200250 (OXA51), +[…] PB, 2nd experiment, read-out: MIC): 0.06 µg/mL (≈ 0.149 µM)
- MIC ([6]; read-out: MIC +[…] PB, Acinetobacter spp. H064200250, +[…] polymyxin B, 1st experiment): 0.5 µg/mL (≈ 1.24 µM)
- MIC without PB/MIC + PB (A. baumannii A329 [7]): 32
- MBC (A. baumannii A329 [8]): 0.25 µg/mL (≈ 0.62 µM)
- MIC without PB/MIC + PB (A. baumannii A390 [9]; A. baumannii A390): ≥256
- MIC (A. baumannii A390 [9]; Acinetobacter baumannii, A390, A. baumannii A390, read-out: MIC): 0.125 µg/mL (≈ 0.31 µM)
- MBC (A. baumannii A14 [10]; [24]): 0.125 µg/mL (≈ 0.31 µM)
- MBC (A. baumannii A14 [10]; Acinetobacter baumannii, A14, A. baumannii A14, without PB, read-out: MBC): > 32 µg/mL
- MBC (A. baumannii A390 [11]): 0.125 µg/mL (≈ 0.31 µM)
- MBC (A. baumannii A473): 0.06 µg/mL (≈ 0.149 µM)
- MBC (A. baumannii NCTC 13301 [12]; NCTC13301, A. baumannii NCTC 13301, +[…] PB, preliminary MBC, 2nd experiment, read-out: MBC): ≤ 0.03 µg/mL
- MBC (A. baumannii NCTC 13301 [12]; NCTC13301, read-out: MBC +[…] PB): 0.5 µg/mL (≈ 1.24 µM)
- MIC without PB/MIC + PB (A. baumannii A401 [13]; A baumannii A 401, ratio, PB 0.06 μg/ml, 1st experiment): 64
- MIC (A. baumannii A401 [13]; A401, A baumannii A 401, +0.06 μg/ml PB, 2nd experiment, read-out: MIC): 0.125 µg/mL (≈ 0.31 µM)
- MIC (A. baumannii A401 [13]; A401, read-out: MIC +0.06 μg/ml PB, A baumannii A 401, +0.06 μg/ml polymyxin B, 1st experiment): 0.125 µg/mL
- MBC (A. baumannii A401 [14]; A401, A baumannii A 401, +0.06 μg/ml PB, 2nd experiment, read-out: MBC): 0.125 µg/mL (≈ 0.31 µM)
- MBC (A. baumannii A401 [14]; A401, read-out: MBC +0.06 μg/ml PB, A baumannii A 401, +0.06 μg/ml polymyxin B, 1st experiment): 0.125 µg/mL
- MIC without PB/MIC + PB (A. baumannii A472 [15]; A. baumannii A472, ratio, PB […], 1st experiment): 64
- MIC (A. baumannii A472 [15]; A472, A. baumannii A472, +[…] PB, 2nd experiment, read-out: MIC): ≤ 0.03 µg/mL
- MIC (A. baumannii A472 [15]; A472, read-out: MIC +[…] PB, A. baumannii A472, +[…] polymyxin B, 1st experiment): 0.5 µg/mL (≈ 1.24 µM)
- MBC (A. baumannii A472 [16]; A472, A. baumannii A472, +[…] PB, 2nd experiment, read-out: MBC): ≤ 0.03 µg/mL
- MBC (A. baumannii A472 [16]; A472, read-out: MBC +[…] PB, A. baumannii A472, +[…] polymyxin B, 1st experiment): 0.25 µg/mL (≈ 0.62 µM)
- MIC without PB/MIC + PB (A. baumannii A489 [17]; +[…] PB, 2nd experiment): ≥128
- MIC without PB/MIC + PB (A. baumannii A489 [17]; ratio, PB […], 1st experiment): 64
- MIC (A. baumannii A489 [17]; A489, A. baumannii A489, +[…] PB, 2nd experiment, read-out: MIC): ≤ 0.03 µg/mL
- MIC (A. baumannii A489 [17]; A489, read-out: MIC +[…] PB, A. baumannii A489, +[…] polymyxin B, 1st experiment): 0.06 µg/mL (≈ 0.149 µM)
- MBC (A. baumannii A489 [18]; A489, A. baumannii A489, +[…] PB, 2nd experiment, read-out: MBC): ≤ 0.03 µg/mL
- MBC (A. baumannii A489 [18]; A489, read-out: MBC +[…] PB, A. baumannii A489, +[…] polymyxin B, 1st experiment): 0.06 µg/mL (≈ 0.149 µM)
- MIC without PB/MIC + PB (A. baumannii NCTC 13301 [19]; A. baumannii NCTC 13301, ratio, PB […], 1st experiment): ≥64
- MIC (A. baumannii NCTC 13301 [19]; Acinetobacter baumannii, NCTC13301, read-out: MIC +[…] PB): 0.5 µg/mL (≈ 1.24 µM)
- MIC without PB/MIC + PB (A. baumannii NCTC 13301 [20]; A. baumannii NCTC 13301): ≥1024
- MIC (A. baumannii NCTC 13301 [20]; Acinetobacter baumannii, NCTC13301, A. baumannii NCTC 13301, read-out: MIC): ≤ 0.03 µg/mL
- MIC +0.06 μg/ml PB (A. baumannii A14 [21]; +0.06 μg/ml polymyxin B): 1 µg/mL
- MIC (A. baumannii A14 [21]; Acinetobacter baumannii, 24 h, without polymyxin B, read-out: MIC without PB): > 32 µg/mL
- MIC without PB/MIC + PB (A. baumannii A14 [21]; ratio, PB 0.06 μg/ml): ≥32
- MIC (A. baumannii A14 [22]; [24]): 0.125 µg/mL (≈ 0.31 µM)
- MIC without PB/MIC + PB (A. baumannii A14 [22]; [24]): ≥256
- MIC (A. baumannii A14 [22]; Acinetobacter baumannii, A14, A. baumannii A14, without PB, read-out: MIC): > 32 µg/mL
- MBC +0.06 μg/ml PB (A. baumannii A14 [23]; +0.06 μg/ml polymyxin B): 1 µg/mL
- MBC (A. baumannii A14 [23]; Acinetobacter baumannii, without polymyxin B, read-out: MBC without PB): > 32 µg/mL
